target: T1, mTOR (Homo sapiens, UniProt P42345); test: In Vitro mTOR Kinase Assay (Echo), Test (a)(ii); format: biochemical; conditions: table of enzyme assay Test (a)(ii); read-out: Test (a)(ii) IC50
T1 construct: FLAG; made in house
Procedure, shortened: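 Compounds were acoustically dispensed, then incubated with FLAG-tagged mTOR (1362-2549) for 2 hours at room temperature. Reactions were quenched with EDTA plus detection antibody and AlphaScreen beads and left overnight in the dark before reading. Loss of phospho-T389 signal gave IC50 values.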

T1 sequence (P42345 1362-2549): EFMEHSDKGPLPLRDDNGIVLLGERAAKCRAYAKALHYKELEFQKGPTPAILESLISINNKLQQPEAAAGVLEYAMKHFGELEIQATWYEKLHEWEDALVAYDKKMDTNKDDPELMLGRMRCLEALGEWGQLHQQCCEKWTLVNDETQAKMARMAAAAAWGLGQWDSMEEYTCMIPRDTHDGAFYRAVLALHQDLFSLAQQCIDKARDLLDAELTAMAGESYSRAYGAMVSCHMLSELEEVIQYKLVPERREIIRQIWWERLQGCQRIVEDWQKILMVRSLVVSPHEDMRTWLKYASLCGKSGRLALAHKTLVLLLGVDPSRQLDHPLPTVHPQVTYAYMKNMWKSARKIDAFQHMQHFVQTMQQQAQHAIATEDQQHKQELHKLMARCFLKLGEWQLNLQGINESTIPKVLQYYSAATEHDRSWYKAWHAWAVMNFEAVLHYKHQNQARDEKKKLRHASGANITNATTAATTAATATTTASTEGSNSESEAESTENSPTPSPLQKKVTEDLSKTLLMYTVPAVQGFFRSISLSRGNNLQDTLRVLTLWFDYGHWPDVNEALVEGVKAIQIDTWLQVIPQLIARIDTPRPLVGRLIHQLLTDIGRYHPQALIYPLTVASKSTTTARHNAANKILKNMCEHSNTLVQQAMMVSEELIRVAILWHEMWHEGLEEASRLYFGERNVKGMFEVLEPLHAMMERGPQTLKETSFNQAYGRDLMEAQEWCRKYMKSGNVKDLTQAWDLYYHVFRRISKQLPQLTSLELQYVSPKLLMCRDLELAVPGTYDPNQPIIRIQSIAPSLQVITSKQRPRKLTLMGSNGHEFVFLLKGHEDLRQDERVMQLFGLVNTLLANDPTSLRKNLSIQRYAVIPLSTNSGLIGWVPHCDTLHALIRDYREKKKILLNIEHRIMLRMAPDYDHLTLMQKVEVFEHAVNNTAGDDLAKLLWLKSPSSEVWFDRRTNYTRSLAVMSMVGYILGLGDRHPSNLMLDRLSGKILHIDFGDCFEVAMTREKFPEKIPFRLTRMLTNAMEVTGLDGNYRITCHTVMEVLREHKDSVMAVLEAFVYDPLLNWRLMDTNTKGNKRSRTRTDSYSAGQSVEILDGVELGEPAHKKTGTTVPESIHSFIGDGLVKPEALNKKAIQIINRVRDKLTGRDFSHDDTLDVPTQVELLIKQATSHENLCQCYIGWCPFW

| IC50 | SMILES |
| --- | --- |
| 7.93 nM | C[C@H]1COC[C@H](C)N1c1cc(C2(S(=O)(=O)C3CC3)CC2)nc(-c2ccc(NC(=O)NC3CC3)cc2)n1 [Example 92, 3-Cyclopropyl-1-[4-[4-(1-cyclopropylsulfonylcyclopropyl)-6-[(3S,5S)-3,5-dimethylmorpholin-4-yl]pyrimidin-2-yl]phenyl]urea] |
| 5.51 nM | C[C@H]1COC[C@H](C)N1c1cc(C2(S(=O)(=O)C3CC3)CC2)nc(-c2ccc(NC(=O)NCC(F)F)cc2)n1 [Example 92a, 1-[4-[4-(1-cyclopropylsulfonylcyclopropyl)-6-[(3S,5S)-3,5-dimethylmorpholin-4-yl]pyrimidin-2-yl]phenyl]-3-(2,2-difluoroethyl)urea] |
| 7.46 nM | C[C@H]1COC[C@H](C)N1c1cc(C2(S(=O)(=O)C3CC3)CC2)nc(-c2ccc(NC(=O)Nc3cnn(C)c3)cc2)n1 [Example 92b, 1-[4-[4-(1-cyclopropylsulfonylcyclopropyl)-6-[(3S,5S)-3,5-dimethylmorpholin-4-yl]pyrimidin-2-yl]phenyl]-3-(1-methylpyrazol-4-yl)urea] |
| 7.8 nM | CNC(=O)Nc1ccc(-c2nc(N3[C@@H](C)COC[C@@H]3C)cc(C3(S(=O)(=O)C4CC4)CC3)n2)cc1 [Example 92c, 1-[4-[4-(1-cyclopropylsulfonylcyclopropyl)-6-[(3S,5)-3,5-dimethylmorpholin-4-yl]pyrimidin-2-yl]phenyl]-3-methylurea] |
| 8.07 nM | CCNC(=O)Nc1ccc(-c2nc(N3[C@@H](C)COC[C@@H]3C)cc(C3(S(=O)(=O)C4CC4)CC3)n2)cc1 [Example 92d, 1-[4-[4-(1-cyclopropylsulfonylcyclopropyl)-6-[(3S,5S)-3,5-dimethylmorpholin-4-yl]pyrimidin-2-yl]phenyl]-3-ethylurea] |
| 5.99 nM | C[C@H]1COC[C@H](C)N1c1cc(C2(S(=O)(=O)C3CC3)CC2)nc(-c2ccc(NC(=O)NCCF)cc2)n1 [Example 92e, 1-[4-[4-(1-cyclopropylsulfonylcyclopropyl)-6-[(3S,5S)-3,5-dimethylmorpholin-4-yl]pyrimidin-2-yl]phenyl]-3-(2-fluoroethyl)urea] |
| 6.25 nM | C[C@H]1COC[C@H](C)N1c1cc(C2(S(=O)(=O)C3CC3)CC2)nc(-c2ccc(NC(=O)NCCO)cc2)n1 [Example 92f, 1-[4-[4-(1-cyclopropylsulfonylcyclopropyl)-6-[(3S,5S)-3,5-dimethylmorpholin-4-yl]pyrimidin-2-yl]phenyl]-3-(2-hydroxyethyl)urea] |
| 5.05 nM | C[C@H]1COC[C@H](C)N1c1cc(C2(S(=O)(=O)c3ccccc3)CC2)nc(-c2ccc(NC(=O)NC3CC3)cc2)n1 [Example 93, 1-[4-[4-[1-(Benzenesulfonyl)cyclopropyl]-6-[(3S,5S)-3,5-dimethylmorpholin-4-yl]pyrimidin-2-yl]phenyl]-3-cyclopropylurea] |
| 3.03 nM | CNC(=O)Nc1ccc(-c2nc(N3[C@@H](C)COC[C@@H]3C)cc(C3(S(=O)(=O)c4ccccc4)CC3)n2)cc1 [Example 93a, 1-[4-[4-[1-(benzenesulfonyl)cyclopropyl]-6-[(3S,5S)-3,5-dimethylmorpholin-4-yl]pyrimidin-2-yl]phenyl]-3-methylurea] |
| 2.3 nM | C[C@H]1COC[C@H](C)N1c1cc(C2(S(=O)(=O)c3ccccc3)CC2)nc(-c2ccc(NC(=O)NCCO)cc2)n1 [Example 93b, 1-[4-[4-[1-(benzenesulfonyl)cyclopropyl]-6-[(3S,5S)-3,5-dimethylmorpholin-4-yl]pyrimidin-2-yl]phenyl]-3-(2-hydroxyethyl)urea] |
| 2.9 nM | C[C@H]1COC[C@H](C)N1c1cc(C2(S(=O)(=O)c3ccccc3)CC2)nc(-c2ccc(NC(=O)NCCF)cc2)n1 [Example 93c, 1-[4-[4-[1-(benzenesulfonyl)cyclopropyl]-6-[(3S,5S)-3,5-dimethylmorpholin-4-yl]pyrimidin-2-yl]phenyl]-3-(2-fluoroethyl)urea] |
| 0.818 nM | C[C@H]1COC[C@H](C)N1c1cc(C2(S(=O)(=O)c3ccccc3)CC2)nc(-c2ccc(NC(=O)NCC(F)F)cc2)n1 [Example 93d, 1-[4-[4-[1-(benzenesulfonyl)cyclopropyl]-6-[(3S,5S)-3,5-dimethylmorpholin-4-yl]pyrimidin-2-yl]phenyl]-3-(2,2-difluoroethyl)urea] |
| 5.41 nM | C[C@H]1COC[C@H](C)N1c1cc(C2(S(=O)(=O)c3ccccc3)CC2)nc(-c2ccc(NC(=O)Nc3cnn(C)c3)cc2)n1 [Example 93e, 1-[4-[4-[1-(benzenesulfonyl)cyclopropyl]-6-[(3S,5S)-3,5-dimethylmorpholin-4-yl]pyrimidin-2-yl]phenyl]-3-(1-methylpyrazol-4-yl)urea] |
| 13.6 nM | CNC(=O)Nc1ccc(-c2nc(N3CCOC[C@@H]3C)cc(C3(S(=O)(=O)C4CCOCC4)CC3)n2)cc1 [Example 94a, 3-methyl-1-[4-[4-[(3S)-3-methylmorpholin-4-yl]-6-[1-(oxan-4-ylsulfonyl)cyclopropyl]pyrimidin-2-yl]phenyl]urea] |
| 12.2 nM | CCNC(=O)Nc1ccc(-c2nc(N3CCOC[C@@H]3C)cc(C3(S(=O)(=O)C4CCOCC4)CC3)n2)cc1 [Example 94b, 1-ethyl-3-[4-[4-[(3S)-3-methylmorpholin-4-yl]-6-[1-(oxan-4-ylsulfonyl)cyclopropyl]pyrimidin-2-yl]phenyl]urea] |
| 11.8 nM | C[C@H]1COCCN1c1cc(C2(S(=O)(=O)C3CCOCC3)CC2)nc(-c2ccc(NC(=O)NC3CC3)cc2)n1 [Example 94c, 3-cyclopropyl-1-[4-[4-[(3S)-3-methylmorpholin-4-yl]-6-[1-(oxan-4-ylsulfonyl)cyclopropyl]pyrimidin-2-yl]phenyl]urea] |
| 11 nM | C[C@H]1COCCN1c1cc(C2(S(=O)(=O)C3CCOCC3)CC2)nc(-c2ccc(NC(=O)NCCO)cc2)n1 [Example 94d, 3-(2-hydroxyethyl)-1-[4-[4-[(3S)-3-methylmorpholin-4-yl]-6-[1-(oxan-4-ylsulfonyl)cyclopropyl]pyrimidin-2-yl]phenyl]urea] |
| 13.5 nM | C[C@H]1COCCN1c1cc(C2(S(=O)(=O)C3CCOCC3)CC2)nc(-c2ccc(NC(=O)Nc3cnn(C)c3)cc2)n1 [Example 94e, 1-[4-[4-[(3S)-3-methylmorpholin-4-yl]-6-[1-(oxan-4-ylsulfonyl)cyclopropyl]pyrimidin-2-yl]phenyl]-3-(1-methylpyrazol-4-yl)urea] |
| 15.1 nM | C[C@H]1COCCN1c1cc(C2(S(=O)(=O)C3CCOCC3)CC2)nc(-c2ccc(NC(=O)NC3CCC3)cc2)n1 [Example 94f, 3-cyclobutyl-1-[4-[4-[(3S)-3-methylmorpholin-4-yl]-6-[1-(oxan-4-ylsulfonyl)cyclopropyl]pyrimidin-2-yl]phenyl]urea] |
| 12.7 nM | CNC(=O)Nc1ccc(-c2nc(N3CCOC[C@@H]3C)cc(C3(S(=O)(=O)C4CCOC4)CC3)n2)cc1 (stereo partly drawn) [Example 94g, 3-methyl-1-[4-[4-[(3S)-3-methylmorpholin-4-yl]-6-[1-(oxolan-3-ylsulfonyl)cyclopropyl]pyrimidin-2-yl]phenyl]urea] |
| 11.6 nM | CCNC(=O)Nc1ccc(-c2nc(N3CCOC[C@@H]3C)cc(C3(S(=O)(=O)C4CCOC4)CC3)n2)cc1 (stereo partly drawn) [Example 94h, 1-ethyl-3-[4-[4-[(3S)-3-methylmorpholin-4-yl]-6-[1-(oxolan-3-ylsulfonyl)cyclopropyl]pyrimidin-2-yl]phenyl]urea] |
| 12.1 nM | C[C@H]1COCCN1c1cc(C2(S(=O)(=O)C3CCOC3)CC2)nc(-c2ccc(NC(=O)NC3CC3)cc2)n1 (stereo partly drawn) [Example 94i, 3-cyclopropyl-1-[4-[4-[(3S)-3-methylmorpholin-4-yl]-6-[1-(oxolan-3-ylsulfonyl)cyclopropyl]pyrimidin-2-yl]phenyl]urea] |
| 6.05 nM | C[C@H]1COCCN1c1cc(C2(S(=O)(=O)C3CCOC3)CC2)nc(-c2ccc(NC(=O)NCCO)cc2)n1 (stereo partly drawn) [Example 94j, 3-(2-hydroxyethyl)-1-[4-[4-[(3S)-3-methylmorpholin-4-yl]-6-[1-(oxolan-3-ylsulfonyl)cyclopropyl]pyrimidin-2-yl]phenyl]urea] |
| 10.6 nM | C[C@H]1COCCN1c1cc(C2(S(=O)(=O)C3CCOC3)CC2)nc(-c2ccc(NC(=O)Nc3cnn(C)c3)cc2)n1 (stereo partly drawn) [Example 94k, 1-[4-[4-[(3S)-3-methylmorpholin-4-yl]-6-[1-(oxolan-3-ylsulfonyl)cyclopropyl]pyrimidin-2-yl]phenyl]-3-(1-methylpyrazol-4-yl)urea] |
| 13.9 nM | CNC(=O)Nc1ccc(-c2nc(N3CCOC[C@@H]3C)cc(C3(S(=O)(=O)c4ccc(F)c(Cl)c4)CC3)n2)cc1 [Example 95a, 1-[4-[4-[1-(3-chloro-4-fluorophenyl)sulfonyl-cyclopropyl]-6-[(3S)-3-methylmorpholin-4-yl]pyrimidin-2-yl]phenyl]-3-methylurea] |
| 19 nM | C[C@H]1COCCN1c1cc(C2(S(=O)(=O)c3ccc(F)c(Cl)c3)CC2)nc(-c2ccc(NC(=O)NC3CC3)cc2)n1 [Example 95b, 1-[4-[4-[1-(3-chloro-4-fluorophenyl)sulfonyl-cyclopropyl]-6-[(3S)-3-methylmorpholin-4-yl]pyrimidin-2-yl]phenyl]-3-cyclopropylurea] |
| 7.06 nM | C[C@H]1COCCN1c1cc(C2(S(=O)(=O)c3ccc(F)c(Cl)c3)CC2)nc(-c2ccc(NC(=O)NCCO)cc2)n1 [Example 95c, 1-[4-[4-[1-(3-chloro-4-fluorophenyl)sulfonyl-cyclopropyl]-6-[(3S)-3-methylmorpholin-4-yl]pyrimidin-2-yl]phenyl]-3-(2-hydroxyethyl)urea] |
| 12.6 nM | C[C@H]1COCCN1c1cc(C2(S(=O)(=O)c3ccc(F)c(Cl)c3)CC2)nc(-c2ccc(NC(=O)NCCF)cc2)n1 [Example 95d, 1-[4-[4-[1-(3-chloro-4-fluorophenyl)sulfonyl-cyclopropyl]-6-[(3S)-3-methylmorpholin-4-yl]pyrimidin-2-yl]phenyl]-3-(2-fluoroethyl)urea] |
| 16 nM | C[C@H]1COCCN1c1cc(C2(S(=O)(=O)c3ccc(F)c(Cl)c3)CC2)nc(-c2ccc(NC(=O)NCC(F)F)cc2)n1 [Example 95e, 1-[4-[4-[1-(3-chloro-4-fluorophenyl)sulfonyl-cyclopropyl]-6-[(3S)-3-methylmorpholin-4-yl]pyrimi-din-2-yl]phenyl]-3-(2,2-difluoroethyl)urea] |
